# Results as given in the supplement of paper PMC3493320.
# System: NCI-H295R
# Assay: IC50 (antiproliferative, ATP content)
# Settings: 48 h
# Method in brief: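 Adrenocortical carcinoma cells were plated at 1500 per well in 1536-well plates in serum-free DMEM with ITS supplement, left overnight, then given library compounds by pin transfer at 8 final concentrations spanning 0.6 nM to 46 µM and held 48 h at 37 °C, 5% CO2. ATP was measured as CellTiter-Glo luminescence after 20 min at room temperature and scaled between vehicle and positive-control wells. A four-parameter logistic model was fitted to each series. The IC50 was taken from these fits, and compounds without a concentration response were recorded as above the top dose.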
row,SMILES,IC50 [µM]
1,CN1CCC(=C2c3ccccc3C=Cc3ccccc32)CC1,> 46
2,CCOC(=O)c1cnc2cc(OCC(C)C)c(OCC(C)C)cc2c1O,> 46
3,CCn1ccnc1CC1COc2ccccc2O1 (stereo not drawn),> 46
4,CNC(C)(C)Cc1ccccc1.CNC(C)(C)Cc1ccccc1.O=S(=O)(O)O,> 46
5,COCC(C)N(C(=O)CCl)c1c(C)csc1C (stereo not drawn),> 46
6,CNC(=C[N+](=O)[O-])NCCSCc1csc(CN(C)C)n1,> 46
7,CN(C)C(=O)Oc1cccc([N+](C)(C)C)c1.[Br-],> 46
8,N#Cc1nn(-c2c(Cl)cc(C(F)(F)F)cc2Cl)c(N)c1S(=O)C(F)(F)F (stereo not drawn),> 46
9,CCCNC(=O)NS(=O)(=O)c1ccc(Cl)cc1,> 46
10,C[N+](C)(C)CCOC(=O)C(O)(c1ccccc1)c1ccccc1.[I-],> 46
11,CCOC(=O)Cc1ccc(-c2ccccc2)cc1,> 46
12,N#Cc1ccc(C(c2ccc(C#N)cc2)n2cncn2)cc1,> 46
13,CCN(CC)CCOC(=O)C(O)(c1ccccc1)c1ccccc1,> 46
14,NC12CC3CC(CC(C3)C1)C2,> 46
15,O[C@H]([C@@]1=CC=CC=C1)[C@H](C)N(C)C,> 46
16,N[C@@H]1CONC1=O,> 46
17,NS(=O)(=O)c1cc(-c2nnn[nH]2)c(NCc2cccs2)cc1Cl,> 46
18,Cc1cc(NS(=O)(=O)c2ccc(N)cc2)no1,> 46
19,CC(=O)OCC1=C(C(=O)O)N2C(=O)[C@@H](NC(=O)Cc3ccccc3)[C@H]2SC1,> 46
20,CCNCC.O=S(=O)(O)c1cc(O)ccc1O,> 46
21,Cl.NNc1nncc2ccccc12,> 46
22,COc1ccc(C(=O)CC(=O)c2ccc(C(C)(C)C)cc2)cc1,> 46
23,NS(=O)(=O)c1cc2c(cc1Cl)NC(C(Cl)Cl)NS2(=O)=O (stereo not drawn),> 46
24,OC1OC[C@@H](O)[C@H](O)[C@@H]1O (stereo partly drawn),> 46
25,CN1C[C@H](C(=O)N[C@]2(C)O[C@@]3(O)[C@@H]4CCCN4C(=O)[C@H](Cc4ccccc4)N3C2=O)C[C@@H]2c3cccc4[nH]cc(c34)C[C@H]21,> 46
26,CN1C(=O)CC(=O)N(c2ccccc2)c2cc(Cl)ccc21,> 46

row,SMILES,IC50 [µM]
1,CCC1NC(=O)c2cc(S(N)(=O)=O)c(Cl)cc2N1 (stereo not drawn),> 46
2,Cc1ccc(S(=O)(=O)[N-]Cl)cc1.O.O.O.[Na+],> 46
3,O[C@@H]3C\C4=C\C[C@@H]2[C@H](CC[C@]1(C)C(=O)CC[C@H]12)[C@@]4(C)CC3,> 46
4,O=C(O)C1CCCN1 (stereo not drawn),> 46
5,Cc1c(C)c2c(c(C)c1OC(=O)c1cccnc1)CC[C@@](C)(CCC[C@H](C)CCC[C@H](C)CCCC(C)C)O2,> 46
6,O=c1[nH]c(=O)c2ccccc2o1,> 46
7,N[C@@H](CSSC[C@H](N)C(=O)O)C(=O)O,> 46
8,COc1c(N2CCNC(C)C2)c(F)cc2c(=O)c(C(=O)O)cn(C3CC3)c12 (stereo not drawn),> 46
9,CC1(C)S[C@@H]2[C@H](NC(=O)C(C(=O)[O-])c3ccccc3)C(=O)N2[C@H]1C(=O)[O-].[Na+].[Na+] (stereo partly drawn),> 46
10,C=CC(C)(O)CC/C=C(\C)CCC=C(C)C (stereo not drawn),> 46
11,O=C(Nc1ccc([N+](=O)[O-])cc1)Nc1ccc([N+](=O)[O-])cc1,> 46
12,O=C(O)CCC(=O)c1ccc(-c2ccccc2)cc1,> 46
13,O=C1CCC(c2ccc(-n3ccnc3)cc2)=NN1,> 46
14,CC(=O)Nc1c(I)cc(I)c(C(=O)O)c1I,> 46
15,Cc1ccccn1,> 46
16,CC=Cc1ccc(OC)cc1,> 46
17,CCCCCCCC(=O)OCC(COC(=O)CCCCCCC)OC(=O)CCCCCCC,> 46
18,O=C([O-])c1ccc(NC(=O)[C@H](Cc2ccc(O)cc2)NC(=O)c2ccccc2)cc1.[Na+],> 46
19,Cn1nnnc1SCC1=C(C(=O)[O-])N2C(=O)[C@@H](NC(=O)[C@H](O)c3ccccc3)[C@H]2SC1.[Na+],> 46
20,C[C@@H]1C[C@H]2[C@@H]3C[C@H](F)C4=CC(=O)C=C[C@]4(C)[C@@]3(Cl)[C@@H](O)C[C@]2(C)[C@H]1C(=O)COC(=O)C(C)(C)C,> 46
21,CC(C(=O)O)c1cccc(C(=O)c2ccccc2)c1 (stereo not drawn),> 46
22,Cc1cn[nH]c1,> 46
23,CC(C)NCC(O)COc1ccc(COCCOC(C)C)cc1.CC(C)NCC(O)COc1ccc(COCCOC(C)C)cc1.O=C(O)/C=C/C(=O)O (stereo not drawn),> 46
24,FC(F)(F)c1ccccc1-n1ccnc1,> 46
25,O=C(O[C@@H]2C[C@H](CC3)[N@@+](C)(C)[C@H]3C2)C(CO)C1=CC=CC=C1.[Br-] (stereo partly drawn),> 46
26,CCCOc1ccccc1-c1nc2[nH]nnc2c(=O)[nH]1,> 46

row,SMILES,IC50 [µM]
1,COC(=O)CCC[N+](C)(C)C.[Cl-],> 46
2,CO[C@@]1(NC(=O)CSCC#N)C(=O)N2C(C(=O)[O-])=C(CSc3nnnn3C)CS[C@@H]21.[Na+],> 46
3,Cc1cc(C(=O)NNCc2ccccc2)no1,> 46
4,CC[C@@H]1C(=O)OC[C@@H]1Cc1cncn1C,> 46
5,CCN[C@H]1C[C@H](C)S(=O)(=O)c2sc(S(N)(=O)=O)cc21.Cl,> 46
6,CC(=O)Oc1ccc(C(=C2CCCCC2)c2ccc(OC(C)=O)cc2)cc1,> 46
7,CC[C@H](C)C(=O)O[C@H]1CCC=C2C=C[C@H](C)[C@H](CC[C@@H]3C[C@@H](O)CC(=O)O3)[C@H]21,> 46
8,O=C(C1=C2CCCC1)N(COC([C@H]3C([C@@H]3/C=C(C)\C)(C)C)=O)C2=O,> 46
9,NC[C@H]1O[C@H](O[C@H]2[C@H](O)[C@@H](O[C@H]3O[C@H](CO)[C@@H](O)[C@H](N)[C@H]3O)[C@H](N)C[C@@H]2N)[C@H](O)[C@@H](O)[C@@H]1O.O=S(=O)(O)O,> 46
10,Oc1cc(Cl)c(Cl)cc1Cl,> 46
11,O=C(O)Cc1sc(-c2ccccc2)nc1-c1ccc(Cl)cc1,> 46
12,CN1C(=O)C(C)(C2=CCCCC2)C(=O)N=C1O (stereo not drawn),> 46
13,O=C1C(=Cc2cccs2)CCCC1=Cc1cccs1,> 46
14,CN(C)CCn1nnnc1SCC1=C(C(=O)O)N2C(=O)[C@@H](NC(=O)Cc3csc(N)n3)[C@H]2SC1.Cl.Cl,> 46
15,C[C@](N)(Cc1ccc(O)c(O)c1)C(=O)O.C[C@](N)(Cc1ccc(O)c(O)c1)C(=O)O.O.O.O,> 46
16,CN1[C@@H]2CC[C@H]1C[C@@H](OC(=O)c1cc(Cl)cc(Cl)c1)C2,> 46
17,CC(=O)N[C@@H](CCC(=O)O)C(=O)O,> 46
18,CN1CC(=O)NC1=N,> 46
19,C=CCN(C1=NCCN1)c1c(Cl)cccc1Cl,> 46
20,C[NH+](C)CCC(c1ccccc1)c1cccc[nH+]1.O=C([O-])/C=C\C(=O)[O-] (stereo not drawn),> 46
21,C[C@]12CCC(=O)C=C1CC[C@H]1[C@@H]3CC[C@](O)(C(=O)CO)[C@@]3(C)C[C@H](O)[C@@]12F,> 46
22,NCCc1ccc(O)cc1,> 46
23,CC(C[N+](C)(C)C)OC(N)=O.[Cl-] (stereo not drawn),> 46
24,O=C(O)CCC(=O)O,> 46
25,O=[C@](CO)[C@]([C@H]2C1)(O[C@@](CCC)([H])O2)[C@](C[C@@H]3O)(C)[C@@]1([C@@]([C@@]([C@](C)4C=C5)3[H])(CCC4=CC5=O)[H])[H],> 46
26,O=C(c1cc2ccccc2o1)N1CCN(Cc2ccccc2)CC1,> 46

row,SMILES,IC50 [µM]
1,O=C2N1[C@]([C@@]([H])2N)([H])SC(C)(C)[C@@H]1[C@@](O)=O,> 46
2,C=C[C@]1(C)C[C@@H](OC(=O)CSCCN(CC)CC)[C@]2(C)[C@@H]3C(=O)CC[C@@]3(CC[C@@H]2C)[C@@H](C)[C@@H]1O,> 46
3,C=CCNC(N)=S,> 46
4,O=C1NC(=O)[C@H]2[C@@H]1[C@@H]1C=C[C@H]2C1,> 46
5,CC(O)C(=O)O.CCOc1ccc2nc3cc(N)ccc3c(N)c2c1.O,> 46
6,CCOC(=O)c1ccccc1C(=O)OCC,> 46
7,Br.CC(N)Cc1ccc(O)cc1 (stereo not drawn),> 46
8,NC(=O)OCC(O)COc1ccc(Cl)cc1 (stereo not drawn),> 46
9,C[C@]43CCC(=O)\C=C4\CC[C@@H]1[C@@H]3CC[C@]2(C)[C@@](O)(CC[C@@H]12)C#C,> 46
10,CCN(CC)CCOc1ccccc1OC,> 46
11,O=[C@@](OCN2C(N(CC#C)CC2=O)=O)[C@H]1C(C)(C)[C@@H]1\C=C(C)/C,> 46
12,NS(=O)(=O)c1cc(C(=O)O)cc(N2CCCC2)c1Oc1ccccc1,> 46
13,CO/N=C(/C(=O)N[C@@H]1C(=O)N2C(C(=O)[O-])=C(COC(C)=O)CS[C@H]12)c1csc(N)n1.[Na+],> 46
14,N/C1=N/C(=O)N(/C=N1)[C@@H]2O[C@H](CO)[C@@H](O)[C@H]2O,> 46
15,Cl.NC(CO)C(=O)NNCc1ccc(O)c(O)c1O (stereo not drawn),> 46
16,C[C@H]1[C@H](NC(=O)C(=NOC(C)(C)C(=O)O)c2csc(N)n2)C(=O)N1S(=O)(=O)O,> 46
17,N#CC1(N2CCCCC2)CCCCC1,> 46
18,CC(C)Cn1cnc2c(N)nc3ccccc3c21,> 46
19,O=C(NCC(O)CO)c1c(I)c(C(=O)NCC(O)CO)c(I)c(N(CCO)C(=O)CO)c1I (stereo not drawn),> 46
20,CNC(=O)OCc1cccc(COC(=O)NC)n1,> 46
21,O=Cc1ccccc1C=O,> 46
22,CN(C)C(=S)SC(=S)N(C)C,> 46
23,CC(C)(CO)[C@@H](O)C(=O)NCCCO,> 46
24,O=[C@]([C@@H]3N([C@@H]2SC(C)3C)C([C@H]2NC([C@@H](C1=CC=C(C=C1)O)N)=O)=O)O,> 46
25,CO[C@H]1/C=C/O[C@@]2(C)Oc3c(C)c(O)c4c(O)c(c5c(nc6cc(C)ccn65)c4c3C2=O)NC(=O)/C(C)=C\C=C\[C@H](C)[C@H](O)[C@@H](C)[C@@H](O)[C@@H](C)[C@H](OC(C)=O)[C@@H]1C,> 46
